# Test system: N9 NA of A/Shanghai/2/2013 (SH13) (H7N9), virus A/Shanghai/2/2013 (H7N9)-PR8-IDCDC-RG32A
# Type: biochemical, Influenza A virus (A/Shanghai/2/2013(H7N9))
compound,measurement,value
CC(=O)N[C@H]1[C@H]([C@H](O)[C@H](O)CO)OC(C(=O)O)=C[C@@H]1N=C(N)N [zanamivir],IC50,7.6 nM

# Reference: paper PMC6941661 (Cell host & microbe, 2019)
